Laboratory results taken from patent US11577248B2, “Biological membrane-based sensor” (McMaster University, priority 2017, dated 2023).

Key:
[1] = test system: human red blood cell membranes; assay: HBLOC sensor: cyclic voltammetry with ferricyanide on RBC membrane-coated nanostructured gold electrodes; settings: ferricyanide redox indicator, FIG. 10
Source text: Inventors have developed a method which isolates human red blood cells on a silicon chip for use as a safe and quantitative test for hemolytic bacteria. To develop our human blood cells on a chip, a sample of human blood is exposed to a hypotonic solution which causes the RBC's to burst and empty their contents. A series of sonication and washing steps are then applied to isolate only the RBC membrane, and to remove all hemoglobin and other contaminants. The result is a solution of empty membrane sacks known as RBC “ghosts”. This solution is then applied to sensors and allowed to slowly dry, leaving behind stacked sheets of RBC membrane. The sensors use nanostructured gold electrodes, functionalized for the application of the RBC membranes and maximizing the surface area for increased sensitivity of the tests. The coated electrodes are then used as part of a 3-electrode electrochemical cell, where any damage to the cell membrane allows a redox-indicator in solution to access the electrode surface. Under cyclic voltammetry or chronoamperometry measurements the reduction/oxidation of the indicator molecule gives rise to a current that is proportional to the amount of membrane damage. […] Membrane damage was quantitatively measured using ferricyanide as the redox indicator and cyclic voltammetry. […]

RBC membranes = assay: X-ray diffraction of RBC/aspirin complexes (multi-lamellar RBC membranes on silicon wafers); design: species or system human
Source text: X-ray scattering data was obtained using the Biological Large Angle Diffraction Experiment (BLADE) in the Laboratory for Membrane and Protein Dynamics at McMaster University. BLADE uses a 9 kW (45 kV, 200 mA) CuKα rotating anode at a wavelength of 1.5418 Å. Both source and detector are mounted on movable arms such that the membranes stay horizontal during the measurements. Focusing multi-layer optics provides a high intensity parallel beam with monochromatic X-ray intensities up to 10^10 counts/(mm^2·s). This beam geometry provides optimal illumination of the solid supported membrane samples to maximize the scattering signal. Note that there is no risk of sample damage using this in-house technique because of the large beam size and relatively low intensity of the X-ray beam as compared to synchrotron sources. The result of an X-ray experiment is a 2-dimensional intensity map of a large area of the reciprocal space, as sketched in FIG. 5. The corresponding real-space length scales are determined by d=2π/ ? and cover length scales from about 2.5 to 100 Å. All scans were measured at 28° C. and 50% relative humidity (RH) hydration. As depicted in FIG. 5a), the wafers were oriented in the X-ray diffractometer, such that the q∥-axis probed lateral structure, parallel to the wafer surface, and the perpendicular axis, qz, probed out-of-plane structure, perpendicular to the substrate. The out-of-plane structure of the membrane was determined using specular reflectivity. The relative electron density, ρ(z), is approximated by a 1-dimensional Fourier analysis. [formula] N is the highest order of the Bragg peaks observed in the experiment. The integrated peak intensities, I, are multiplied by q, to receive the form factors, F(q,). The bilayer form factor F(qz), which is in general a complex quantity, is real-valued in the case of centro-symmetry. The phase problem of crystallography, therefore, simplifies to the sign problem F(qz)=±|F(qz)| and the phases, ν, can only take the values±1. The phases, ν, are needed to reconstruct the electron density profile from the scattering data following Eq. (1). When the membrane form factor F(qz) is measured at several qz values, a continuous function, T(qz), which is proportional to F(qz), can be fitted to the data. Once an analytical expression for T(qz) has been determined from fitting the experimental peak intensities, the phases ν, can be assessed from T(qz). The phase array ν, =[−1−1 1−1 1] was used for all samples. The electron densities determined by Eq. (1) are on a relative scale. In order to compare the electron densities in FIGS. 6c) and 7c), ρ in the membrane centre at z=0 was set to 0 and the electron density at the boundaries (z values between 25 and 30 Å depending on the lamellar spacing), which probe the water layer between the stacked membranes, were scaled to the electron density of water of ρ=0.33 e^−/Å^3. In order to prepare complexes of RBC membranes containing increasing amounts of aspirin, a solution of 9 mg/mL acetylsalicylic acid (molecular weight 180 g/mol) in 18.2 MΩ·cm water was prepared. 2 μL, 3 μL, 4 μL, 5 μL, and 6 μL of this solution were added to 100 μL of the final ghosts solution resulting in acetylsalicylic acid concentrations of 1 mM, 1.5 mM, 2 mM, 2.5 mM and 3 mM. The resulting solutions were applied onto silicon wafers and dried slowly and incubated for 5 days following the above protocol. The in-plane peaks are the result of a hexagonal packing of the lipid tails in the hydrophobic membrane core (planar group p6). The distance between two acyl tails is determined to be α=4π/(√3q), where q∥ is the position of the corresponding correlation peak. The area per lipid chain is obtained to AT=(√3/2) α^2 Lipid tail distances in lo and ld domains and lipid tail areas are listed in Table 1. […]

SMILES	membrane damage: reduction and oxidation peak currents [1]	ASA concentration at which lamellar spacing and membrane thickness of lo and ld domains coincide (RBC membranes; 0-3 mM ASA series)	effect on lamellar spacing and membrane thickness of ld lipid domains (RBC membranes; 1-3 mM ASA)	overall lamellar spacing of the RBC membranes (RBC membranes; ASA concentration of 2.5 mM)	overall membrane thickness (RBC membranes; ASA concentration of 2.5 mM)	domain preference of the interaction with RBC membranes (RBC membranes; electron densities of lo and ld domains, 1 mM ASA)	effect on lipid spacing in the ld domain (RBC membranes; in presence of aspirin)	distance between lipids alo in lo domains (RBC membranes; in presence of aspirin, increase from 4.69 Å in pure RBC membranes)	lipid tail area in lo domains (RBC membranes; in presence of aspirin, increase from 19.04 Å^2 in pure RBC membranes)	effect on lipid domain sizes (RBC membranes; increasing ASA content)	effect on peptide domain size (RBC membranes; increasing ASA content)	location of aspirin in the membrane (|z| of increased electron density, head group region) (RBC membranes; lo lipid domains, RBC membranes + 1 mM ASA vs pure RBC membrane)
CCCCCCCCCCCCOS(=O)(=O)[O-].[Na+] [SDS, sodium dodecyl sulfate]	increases in the reduction and oxidation peak currents											
CC(=O)Oc1ccccc1C(=O)O [aspirin, acetylsalicylic acid]		2.5 mM	not affected	53.4 Å	41.8 Å	preferably interacts with lo regions	unchanged	4.85 Å	20.37 Å^2	approximately independent of aspirin concentration	slight increase in peptide domain size	~22.8 Å
